# Results from article PMC11969024, “Development of chemokine network inhibitors using combinatorial saturation mutagenesis” (Communications Biology, 2025).
# Tested on: J:CXCR1 cells (Jurkat cells stably transfected with CXCR1)
# Test: J:CXCR1 cell migration induced by CXCL6, inhibition by peptide
# Assay type: cell-based, human
# Conditions: peptide 10 uM; CXCL6 at EC80; Dunnett's test
# Method: Cell lines were confirmed mycoplasma free by monthly testing using a MycoAlert^TM kit (LT07-118, Lonza) following the manufacturer’s instructions. THP1 cells: THP1 cells (ECACC 88081201, a human monocyte leukemia cell line[51]) were obtained from ECACC and were cultured in T175 flasks at 0.3-1 × 10^6 cells/mL in Roswell Park Memorial Institute (RPMI) 1640 medium (R0883, Sigma) with 10% FBS (F9665, Sigma) and 5mM L-glutamine (G7513, Sigma), 37 °C, 5% CO2. J:CXCR1 cells: The J:CXCR1 cell line was cultured in the same manner as THP1 cells at 0.15-1 × 10^6 cells per mL[37]. Activated T-cells: T-cells were isolated, activated and expanded as follows. Briefly, density gradient centrifugation using Lymphoprep^TM density gradient medium (07801, […] Technologies) and a SepMate^TM isolation tube (85450, […] Technologies) was used to isolate peripheral blood mononuclear cells from human leukocyte cones. Two rounds of purification using a human CD8 + T-cell isolation kit (480011, BioLegend) were used to isolate CD8 + T-cells from peripheral blood mononuclear cells. Activation of CD8 + T-cells was performed in ImmunoCult^TM-XF T-cell expansion medium (10982, […] Technologies) with an anti-CD3/anti-CD28 T-cell activator at 25 μl/ml (10991, […] Technologies), supplemented with 10 ng/ml recombinant human IL-2 (200-02, PeproTech) with 1% penicillin/streptomycin. […] The final pellet was resuspended in 1 mL of MACS buffer per 5 mL of initial blood volume and counted using cell size FSC-H/SSC-H parameters with gate settings previously defined by immunostaining (see below). […]
# Cell counts were determined using an ATTUNE NxT Flow Cytometer with Cytkick autosampler (ThermoFisher), based on cell size parameters FSC-H/SSC-H, with previously defined gate settings. FSC-H/SSC-H gate settings for primary white blood cells from buffy coats were determined using flow cytometry to establish the granulocyte, monocyte and lymphocyte populations (Supplementary Fig. 13). […]
sequence,measurement,value
"EEDDYWAYAPLTCYFT [HD2T6W, HD2 point mutant]",inhibition of CXCL6-induced migration of J:CXCR1 cells compared to parental HD2,significant improvement in inhibition
